Laboratory results as given in PMC3726336, “Product inhibition of cellulases studied with ^14C-labeled cellulose substrates” (Biotechnology for Biofuels, 2013).

How the values were obtained:
[1] = tested on: GH7 CBHs; parameters: method as in PMID 18512263; conditions: MUL as substrate of the GH7 CBHs; cited from earlier work
[2] = target: CtCel6A (Chaetomium thermophilum, UniProt G0SD43); assay: Inhibition of hydrolysis of 14C-BMCC by CtCel6A; type: biochemical; conditions: CtCel6A, 14C-BMCC, 50°C
CtCel6A, sequence (G0SD43 entry or part of it): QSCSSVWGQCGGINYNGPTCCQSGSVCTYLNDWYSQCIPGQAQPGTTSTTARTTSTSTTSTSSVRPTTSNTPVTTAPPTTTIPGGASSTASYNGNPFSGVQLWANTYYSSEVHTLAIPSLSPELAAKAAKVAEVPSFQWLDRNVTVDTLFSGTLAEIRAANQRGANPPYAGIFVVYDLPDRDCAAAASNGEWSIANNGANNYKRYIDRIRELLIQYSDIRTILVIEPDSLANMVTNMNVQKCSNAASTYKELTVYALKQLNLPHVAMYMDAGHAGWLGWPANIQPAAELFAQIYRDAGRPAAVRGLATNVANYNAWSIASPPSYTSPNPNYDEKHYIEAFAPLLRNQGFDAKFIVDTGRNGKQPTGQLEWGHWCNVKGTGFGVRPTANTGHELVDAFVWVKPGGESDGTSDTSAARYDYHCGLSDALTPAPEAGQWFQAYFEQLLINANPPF
Source text: (§1) Here, we characterized the cellobiose and glucose inhibition of TrCel6A and its thermophilic counterpart, CtCel6A [9, 63]. First, the cellobiose inhibition of the synergistic hydrolysis of ^14C-BC by TrCel6A and TrCel5A was studied (Figure 7A). As TrCel6A was less sensitive to cellobiose inhibition than TrCel7A, the contribution of the cellobiose released during hydrolysis was not significant, and an average (DCB/DCB=0) over all time points was used in plotting (DCB/DCB=0) versus [cellobiose] (Figure 7D). No significant systematic variation of DCB/DCB=0 depending on hydrolysis time was observed. As in the case of GH7 CBHs, the IC50 value was found using Equations 5 and 6. Because the IC50 value for synergistic hydrolysis (Table 3) was of the same order as the apparent Ki value reported for TrCel5A [31], we further tested the inhibition of individual TrCel6A. BC is not a good substrate for TrCel6A, but its acid-treated derivative, BMCC, is readily degraded by the enzyme. Therefore, we prepared ^14C-BMCC by the heterogeneous acid hydrolysis of ^14C-BC. […]
(§2) GH6 CBHs were assessed by observing the hydrolysis of ^14C-BMCC. ^14C-BMCC (0.25 g l^-1) was incubated (with shaking at 350 rpm) with CBH (0.25 μM) and N188BG (0.06 μM) in 50 mM sodium acetate buffer, pH 5.0, containing BSA (0.1 g l^-1). […]

[3] = target: T1, TrCel5A (Trichoderma reesei, UniProt P07982); parameters: method as in PMID 23410927; conditions: cited from earlier work
T1 construct: TrCel7B, TrCel5A, and TrCel12A were purified from the culture filtrate of Tr QM 9414; made in house; host or cells: Trichoderma reesei QM 9414 culture filtrate (native producer)
T1 sequence (P07982 22-418): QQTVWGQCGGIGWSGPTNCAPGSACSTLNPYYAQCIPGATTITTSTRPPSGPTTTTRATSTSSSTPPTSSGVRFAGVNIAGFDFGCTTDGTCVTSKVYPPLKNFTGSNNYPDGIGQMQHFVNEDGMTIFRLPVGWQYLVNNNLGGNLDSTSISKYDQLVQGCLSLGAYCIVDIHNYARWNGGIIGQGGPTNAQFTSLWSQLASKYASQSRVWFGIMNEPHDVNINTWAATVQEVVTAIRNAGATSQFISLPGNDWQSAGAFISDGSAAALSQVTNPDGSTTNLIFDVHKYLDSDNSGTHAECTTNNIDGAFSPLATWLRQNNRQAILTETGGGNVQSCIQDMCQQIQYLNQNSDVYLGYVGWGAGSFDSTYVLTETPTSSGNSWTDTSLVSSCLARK

[4] = target: T2, TrCel6A (Trichoderma reesei, UniProt P07987); assay: Inhibition of hydrolysis of 14C-BMCC by TrCel6A; type: biochemical; conditions: TrCel6A, 14C-BMCC, 50°C
T2 construct: TrCel6A was purified from the culture filtrate of Tr QM 9414 as described previously; made in house; host or cells: Trichoderma reesei QM 9414 culture filtrate (native producer)
T2 sequence (P07987 25-471): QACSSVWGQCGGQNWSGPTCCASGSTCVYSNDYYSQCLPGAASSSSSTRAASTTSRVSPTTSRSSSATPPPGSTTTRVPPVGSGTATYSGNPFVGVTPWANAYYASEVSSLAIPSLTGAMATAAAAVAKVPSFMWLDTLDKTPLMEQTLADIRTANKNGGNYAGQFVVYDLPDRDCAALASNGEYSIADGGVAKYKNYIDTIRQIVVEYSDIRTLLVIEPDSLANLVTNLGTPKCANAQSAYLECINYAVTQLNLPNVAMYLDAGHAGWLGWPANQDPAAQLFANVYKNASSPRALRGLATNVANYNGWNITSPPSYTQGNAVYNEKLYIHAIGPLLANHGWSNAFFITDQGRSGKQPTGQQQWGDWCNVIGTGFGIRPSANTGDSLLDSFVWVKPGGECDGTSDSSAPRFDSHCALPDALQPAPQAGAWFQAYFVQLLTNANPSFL
Source text: as §1, §2

SMILES	Km [1]	times weaker inhibitor than cellobiose [2]	inhibition by glucose [3]	times weaker inhibitor than cellobiose [4]
Cc1cc(=O)oc2cc(O[C@@H]3O[C@H](CO)[C@@H](O[C@@H]4O[C@H](CO)[C@H](O)[C@H](O)[C@H]4O)[C@H](O)[C@H]3O)ccc12 [MUL, 4-methylumbelliferyl-β-lactoside]	~300 µM	–	–	–
OC[C@H]1OC(O)[C@H](O)[C@@H](O)[C@@H]1O (stereo partly shown) [glucose, Glucose]	–	approximately 10 times	not significantly inhibited	approximately 10 times
